Data reported in patent US20250345512A1, “COMBINATION SODIUM-GLUCOSE COTRANSPORTER INHIBITOR (SGLTI) INSULIN THERAPY FOR GLYCEMIC CONTROL IN TYPE 1 DIABETES” (University of Virginia Patent Foundation, priority 2022, published 2025).

Test system: participants with T1D
Assay: Randomized crossover clinical trial (NCT04201496): CGM glycemic outcomes with 5 mg daily empagliflozin adjunctive to AID (Control-IQ, CIQ) or PLGS (Basal-IQ, BIQ)
Format: in vivo, human
Settings: for % CGM time <50 mg/dL (<2.8 mmol/L) / % CGM time <60 mg/dL (<3.3 mmol/L) / % CGM time <70 mg/dL (<3.9 mmol/L) / % CGM time >180 mg/dL (>10.0 mmol/L) / % CGM time >250 mg/dL (>13.9 mmol/L) / % CGM time >300 mg/dL (>16.7 mmol/L) / CGM HBGI / CGM LBGI: median (IQR)
Experimental: FIG. 2 presents a study analysis relative to baseline, control IQ (CIQ) (e.g., AID), and basal IQ (BIQ) (e.g., PLGS) implementation, according to investigation that is demonstrable of one or more embodiments herein. Therein, an experimental arm (G1, G2) providing an initial daily dose of 5 mg empagliflozin (EMPA) is depicted against a control arm (G3, G4) without such dosing (NOEMPA). Relative characteristics of the analysis are provided below.
Study Design: A single-center, randomized, controlled, unblinded, crossover clinical trial (NCT04201496) compared four parallel groups, two groups in the experimental arm (EMPA) with 5 mg daily empagliflozin as adjunctive therapy to PLGS or AID, and two groups in the control arm (NOEMPA) with no drug and with a PLGS system (Basal-IQ, Tandem Diabetes Care) or AID system (Control-IQ, Tandem Diabetes Care). The groups within each arm differed from one another in the order of the randomly assigned crossover technological intervention, relative to PLGS being followed by AID or AID being followed by PLGS, respectively (FIG. 4). The study protocol was approved by the University of Virginia Institutional Review Board (IRB). An investigational device exemption (IDE), including an investigational new drug (IND) application for empagliflozin, was approved by the FDA. Safety aspects were overseen by an external data and safety monitoring board (DSMB). Participants: Major inclusion criteria were T1D treated with insulin for at least one year, use of continuous subcutaneous insulin infusion therapy for at least six months, age 18-65 yrs., no use of glucose lowering agents other than insulin, and Hb1Ac<9% (75 mmol/mol). Randomization: A (1:1:1:1) randomization assigned participants to either Group 1, AID-EMPA (4 weeks) followed by PLGS-EMPA (2 weeks), Group 2, PLGS-EMPA (2 weeks) followed by AID-EMPA (4 weeks), Group 3, AID-NOEMPA (4 weeks) followed by PLGS-NOEMPA (2 weeks), and Group 4, PLGS-NOEMPA (2 weeks) followed by AID-NOEMPA (4 weeks). Procedures: After confirmation of eligibility, participants underwent study equipment and medication training (experimental arm), or only study equipment training (control arm). Study equipment consisted of Dexcom G6® CGM (Dexcom Inc., San Diego, CA), Contour® Next blood glucose (Ascensia Diabetes Care, Basel, Switzerland) and Precision Xtra® blood ketone meters (Abbott, Alameda, CA) with their respective test strips; infusion sets, and the use of the t:slim X2™ insulin pump with Basal-IQ or Control-IQ technologies (Tandem Diabetes Care, San Diego, CA), according to randomization. […] Participants in the experimental arm were asked to record two days of baseline ketone values before initiating the use of the study drug. Thereafter, participants were directed to use the study CGM with EMPA for 1-2 weeks. A tolerance to the medication was assessed prior to the starting of the next study phase, including adherence to the protocol, ketone testing 2-4 times per day with monitored values not greater than 0.6 mmol/L on at least two successive occasions (the first testing upon waking in a fasted state), no adverse events relating to perineal infection or symptomatic postural hypotension, and no evidence of significant hypoglycemia <54 mg/dL, or any other listed adverse effects of the medication. Participants in the control arm were directed to use the study CGM for 1-2 weeks. Sample Size: The total sample size was projected to be 40 participants, assuming 1) 1:1:1:1 randomization; 2) 90% power and type 1 error a=0.01, further reinforcing the feasibility of hierarchical analyses. The projected recruitment sample was n=50, to accommodate up to 20% attrition rate without sacrificing statistical power. Analytical methods: For the primary analysis, TIR during the day in the 4-week AID period was compared between the two EMPA groups versus the two NOEMPA groups using a linear mixed-effects regression model while adjusting for pre-randomization HbAlc and age. […]

[1] = overall, CIQ-EMPA vs. BIQ-NOEMPA, BIQ-EMPA vs. CIQ-NOEMPA
[2] = overall, CIQ-EMPA vs. CIQ-NOEMPA, BIQ-EMPA vs. BIQ-NOEMPA
[3] = overall, CIQ-EMPA vs. CIQ-NOEMPA, BIQ-EMPA vs. BIQ-NOEMPA, listed as AID-EMPA
[4] = overnight, CIQ-EMPA vs. BIQ-EMPA
[5] = overnight, CIQ-EMPA vs. BIQ-EMPA, listed as AID-EMPA
[6] = overnight, CIQ-EMPA vs. BIQ-NOEMPA, BIQ-EMPA vs. CIQ-NOEMPA
[7] = overnight, CIQ-EMPA vs. CIQ-NOEMPA, BIQ-EMPA vs. BIQ-NOEMPA

Q: What does the source list for `OC[C@H]1O[C@@H](c2ccc(Cl)c(Cc3ccc(O[C@H]4CCOC4)cc3)c2)[C@H](O)[C@@H](O)[C@@H]1O` [CIQ-EMPA, empagliflozin]?
A: Difference: CGM HBGI [1]: −5.4; Difference: CGM LBGI [1]: −0.1; Difference: % CGM time >180 mg/dL (>10.0 mmol/L) [2]: −22.3 percentage points; Difference: CGM HBGI [2]: −2.7; Difference: CGM LBGI [2]: 0; Difference: CGM SD [2]: -12.3 mg/dL; Difference: % CGM time 70-180 mg/dL (<3.9-10.0 mmol/L) [3]: +14.7 percentage points; Difference: % CGM time >180 mg/dL (>10.0 mmol/L) [3]: −12.3 percentage points; Difference: % CGM time >250 mg/dL (>13.9 mmol/L) [3]: −4.9 percentage points; % CGM time <70-140 mg/dL (<3.9-7.8 mmol/L) (overall, n = 16, mean ± SD): 59.6 ± 13.7%; % CGM time <70-180 mg/dL (<3.9-10.0 mmol/L) (overall, n = 16, mean ± SD): 83 ± 10.6%; CGM CV (%) (overall, n = 16, mean ± SD): 29.4 ± 3.6%; CGM SD (overall, n = 16, mean ± SD): 40.5 ± 9.4 mg/dL; Mean CGM glucose (overall, n = 16, mean ± SD): 137 ± 18.6 mg/dL; % CGM time <50 mg/dL (<2.8 mmol/L) (overall, n = 16): 0(0-0.2) %; % CGM time <60 mg/dL (<3.3 mmol/L) (overall, n = 16): 0.3(0.1-0.5) %; % CGM time <70 mg/dL (<3.9 mmol/L) (overall, n = 16): 1.1(0.5-1.5) %; % CGM time >180 mg/dL (>10.0 mmol/L) (overall, n = 16): 11.5(7-19) %; % CGM time >250 mg/dL (>13.9 mmol/L) (overall, n = 16): 1.1(0.2-2.9) %; % CGM time >300 mg/dL (>16.7 mmol/L) (overall, n = 16): 0(0-0.5) %; CGM HBGI (overall, n = 16): 2.7(2-4.4); CGM LBGI (overall, n = 16): 0.5(0.4-0.6); Difference (95% CI): % CGM time 70 mg/dL (<3.9 mmol/L) [4]: −1.5 percentage points; Difference (95% CI): % CGM time <50 mg/dL (<2.8 mmol/L) [4]: 0.2 percentage points; Difference (95% CI): % CGM time <60 mg/dL (<3.3 mmol/L) [4]: −0.4 percentage points; Difference (95% CI): % CGM time >250 mg/dL (>13.9 mmol/L) [4]: −2.5 percentage points; Difference (95% CI): % CGM time >300 mg/dL (>16.7 mmol/L) [4]: −2.5 percentage points; Difference (95% CI): CGM CV (%) [4]: −5.1%; Difference (95% CI): CGM HBGI [4]: −2.1; Difference (95% CI): CGM LBGI [4]: −0.5; Difference (95% CI): CGM SD [4]: -10.2 mg/dL; Difference (95% CI): Mean CGM glucose [4]: -11.7 mg/dL; Difference (95% CI): % CGM time 70-180 mg/dL (3.9-10.0 mmol/L) [5]: +10.2 percentage points; Difference (95% CI): % CGM time >180 mg/dL (>10.0 mmol/L) [5]: −9.5 percentage points; Difference (95% CI): % CGM time <60 mg/dL (<3.3 mmol/L) [6]: −0.3 percentage points; Difference (95% CI): % CGM time >180 mg/dL (>10.0 mmol/L) [6]: −27.3 percentage points; Difference (95% CI): % CGM time >250 mg/dL (>13.9 mmol/L) [6]: −16.4 percentage points; Difference (95% CI): % CGM time >300 mg/dL (>16.7 mmol/L) [6]: −7.6 percentage points; Difference (95% CI): CGM CV (%) [6]: −11.1%; Difference (95% CI): CGM HBGI [6]: −7.3; Difference (95% CI): CGM LBGI [6]: −0.3; Difference (95% CI): CGM SD [6]: -27.1 mg/dL; Difference (95% CI): Mean CGM glucose [6]: -36.2 mg/dL; Difference (95% CI): % CGM time 70 mg/dL (<3.9 mmol/L) [7]: −1.1 percentage points; Difference (95% CI): % CGM time <50 mg/dL (<2.8 mmol/L) [7]: −0.1 percentage points; Difference (95% CI): % CGM time <60 mg/dL (<3.3 mmol/L) [7]: −0.6 percentage points; Difference (95% CI): % CGM time >180 mg/dL (>10.0 mmol/L) [7]: −14.6 percentage points; Difference (95% CI): % CGM time >250 mg/dL (>13.9 mmol/L) [7]: −5.5 percentage points; Difference (95% CI): CGM HBGI [7]: −3.2; Difference (95% CI): CGM LBGI [7]: 0.2; Difference (95% CI): CGM SD [7]: -18.3 mg/dL; Difference (95% CI): Mean CGM glucose [7]: -21.5 mg/dL; % CGM time 70-140 mg/dL (3.9-7.8 mmol/L) (overnight, n = 16, mean ± SD): 64 ± 18%; % CGM time 70-180 mg/dL (3.9-10.0 mmol/L) (overnight, n = 16, mean ± SD): 87 ± 13%; CGM CV (%) (overnight, n = 16, mean ± SD): 25.4 ± 5.4%; CGM SD (overnight, n = 16, mean ± SD): 34.2 ± 10.7 mg/dL; Mean CGM glucose (overnight, n = 16, mean ± SD): 133 ± 20 mg/dL; % CGM time <50 mg/dL (<2.8 mmol/L) (overnight, n = 16): 0(0-0.3) %; % CGM time <60 mg/dL (<3.3 mmol/L) (overnight, n = 16): 0.3(0-0.5) %; % CGM time <70 mg/dL (<3.9 mmol/L) (overnight, n = 16): 0.7(0-1.3) %; % CGM time >180 mg/dL (>10.0 mmol/L) (overnight, n = 16): 6.3(3.3-11.1) %; % CGM time >250 mg/dL (>13.9 mmol/L) (overnight, n = 16): 0(0-2) %; % CGM time >300 mg/dL (>16.7 mmol/L) (overnight, n = 16): 0(0-0.4) %; CGM HBGI (overnight, n = 16): 2.1(1.3-2.7); CGM LBGI (overnight, n = 16): 0.4(0.2-0.5); night-time in range, h out of 8 h (overnight, out of 8 h of the night-time, listed as AID-EMPA): 7 h
